Assay results as given in patent US20100255580A1, “Differentiation of Human Embryonic Stem Cells” (LIFESCCAN, INC., priority 2007, published 2010).

Test system: H9 embryonic stem cells
Format: cell-based, human
Conditions: low serum
Experimental: Controls for each group included cells plated on […]-coated dishes and cultured in MEF-conditioned medium or cells plated on MEFs and cultured in ES medium. All groups contained three biological replicates and each biological replicate was repeated on two separate gene chips.
Sample preparation, hybridization, and image analysis were performed according to the Affymetrix Human Genome U133 Plus 2.0 Array. Following normalization and a log transformation, data analysis was performed using OmniViz® software (MA) and […] (VizXLabs, WA). Significant differences in gene expression between the samples were evaluated using analysis of variance and an F-test with adjusted P-value (Benjamini and
Hochberg correction) of ≦b 0.05. Only genes with a present call in at least one group were included in the analysis.

For “Activin A: a member of the TGFβ superfamily; R&D Systems; Group 2 = Activin A (100 ng/ml)”, the “log intensity, nudix (nucleoside diphosphate linked moiety X)-type motif 4” value (on MATRIGEL) was 2.095, the “log intensity, olfactory receptor, family 52, subfamily A, member 1 (OR52A1)” value (on MATRIGEL) was −0.3096 and the “log intensity, oxoglutarate dehydrogenase (lipoamide) (OGDH)” value (on MATRIGEL) was −0.03259. The “log intensity, partial LHX9 gene for LIM-homeobox 9, 3UTR” value (on MATRIGEL) was −2.2486, the “log intensity, partial mRNA for putative nuclear factor” value (on MATRIGEL) was 1.552 and the “log intensity, phosphatidylinositol-4-phosphate 5-kinase, type I, beta (PIP5K1B)” value (on MATRIGEL) was 1.349. The “log intensity, phosphofructokinase, liver (PFKL)” value (on MATRIGEL) was 2.039, the “log intensity, pilin-like transcription factor (PILB)” value (on MATRIGEL) was 3.145 and the “log intensity, pleiomorphic adenoma gene-like 1” value (on MATRIGEL) was −0.6468. For the same substance, the “log intensity, plexin A2” value (on MATRIGEL) was 0.9305, the “log intensity, polycythemia rubra vera 1; cell surface receptor (PRV1)” value (on MATRIGEL) was −1.196 and the “log intensity, porcupine (MG61)” value (on MATRIGEL) was 1.518. The “log intensity, protease, serine, 4 (trypsin 4, brain)” value (on MATRIGEL) was −0.3456, the “log intensity, protein S (alpha) (PROS1)” value (on MATRIGEL) was 0.5776 and the “log intensity, protocadherin 10” value (on MATRIGEL) was 1.767. For the same substance, the “log intensity, putative 47 kDa protein (r448)” value (on MATRIGEL) was −0.1239, the “log intensity, putative 47 kDa protein (r770)” value (on MATRIGEL) was 0.1565 and the “log intensity, putative sterol reductase SR-1 (TM7SF2)” value (on MATRIGEL) was 1.669. The “log intensity, ras homolog gene family, member B” value (on MATRIGEL) was −0.1231, the “log intensity, receptor tyrosine kinase-like orphan receptor 2 (ROR2)” value (on MATRIGEL) was 1.533 and the “log intensity, regulator of G protein signalling 5 (RGS5)” value (on MATRIGEL) was 3.0091. The “log intensity, ret finger protein-like 2 (RFPL2)” value (on MATRIGEL) was −2.155, the “log intensity, secreted apoptosis related protein 2 (SARP2)” value (on MATRIGEL) was 3.184 and the “log intensity, secreted frizzled-related protein 1” value (on MATRIGEL) was 1.649. For the same substance, the “log intensity, sialyltransferase (STHM)” value (on MATRIGEL) was −0.6871, the “log intensity, signal transducer and activator of transcription 3 (acute-phase response factor)” value (on MATRIGEL) was −0.8373 and the “log intensity, singed (Drosophila)-like (sea urchin fascin homolog like) (SNL)” value (on MATRIGEL) was 4.233. The “log intensity, sodium dependent phosphate transporter isoform NaPi-IIb” value (on MATRIGEL) was −0.3971, the “log intensity, solute carrier (SLC25A18)” value (on MATRIGEL) was 0.4037 and the “log intensity, solute carrier family 9 (sodiumhydrogen exchanger), isoform 5 (SLC9A5)” value (on MATRIGEL) was 0.04749. The “log intensity, stanniocalcin 1 (STC1), mRNA” value (on MATRIGEL) was 2.394, the “log intensity, stanniocalcin 1 (r1113)” value (on MATRIGEL) was 2.487 and the “log intensity, testican 3 (HSAJ1454)” value (on MATRIGEL) was −2.812. For the same substance, the “log intensity, testis enhanced gene transcript (BAX inhibitor 1)” value (on MATRIGEL) was −0.6952, the “log intensity, thyrotropin-releasing hormone (TRH)” value (on MATRIGEL) was −1.657 and the “log intensity, transcription factor 2, hepatic; LF-B3; variant hepatic nuclear factor (TCF2), transcript variant a” value (on MATRIGEL) was −1.125. For the same substance, the “log intensity, transcriptional activator of the c-fos promoter (CROC4)” value (on MATRIGEL) was 0.6664, the “log intensity, transmembrane tyrosine kinase mRNA” value (on MATRIGEL) was −0.006089 and the “log intensity, tropomodulin, clone MGC: 3643” value (on MATRIGEL) was 0.3488. For the same substance, the “log intensity, tryptase, alpha” value (on MATRIGEL) was 2.991, the “log intensity, tudor repeat associator with PCTAIRE 2” value (on MATRIGEL) was 2.158 and the “log intensity, tyrosine 3-monooxygenasetryptophan 5-monooxygenase activation protein, eta polypeptide (r705)” value (on MATRIGEL) was 2.985. The “log intensity, tyrosine 3-monooxygenasetryptophan 5-monooxygenase activation protein, eta polypeptide (r966)” value (on MATRIGEL) was 3.483, the “log intensity, AD036 mRNA” value (on MEFS) was 1.603 and the “log intensity, ADP-ribosylation factor 4-like (ARF4L)” value (on MEFS) was 4.48. For the same substance, the “log intensity, BACE mRNA for beta-site APP cleaving enzyme I-476” value (on MEFS) was 1.446, the “log intensity, BTB (POZ) domain containing 2 (BTBD2)” value (on MEFS) was 2.325 and the “log intensity, CXCR4 gene encoding receptor CXCR4” value (on MEFS) was 6.361. The “log intensity, Cluster Incl. AB002344: Human mRNA for KIAA0346 gene (r901)” value (on MEFS) was 3.478, the “log intensity, Cluster Incl. AB002344: Human mRNA for KIAA0346 gene (r941)” value (on MEFS) was 3.317 and the “log intensity, Cluster Incl. L37033: Human FK-506 binding protein homologue (FKBP38)” value (on MEFS) was 1.661. For the same substance, the “log intensity, Cluster Incl. N80935: zb07g06.s1 Homo sapiens cDNA” value (on MEFS) was 2.666, the “log intensity, ESTs (r403)” value (on MEFS) was 2.715 and the “log intensity, ESTs (r404)” value (on MEFS) was 2.276. For the same substance, the “log intensity, ESTs (r405)” value (on MEFS) was −1.711, the “log intensity, ESTs (r442)” value (on MEFS) was 5.906 and the “log intensity, ESTs (r453)” value (on MEFS) was −2.153. The “log intensity, ESTs (r473)” value (on MEFS) was 0.8364, the “log intensity, ESTs (r491)” value (on MEFS) was −0.4453 and the “log intensity, ESTs (r522)” value (on MEFS) was 2.214. The “log intensity, ESTs (r523)” value (on MEFS) was 0.05049, the “log intensity, ESTs (r524)” value (on MEFS) was 2.399 and the “log intensity, ESTs (r556)” value (on MEFS) was 0.7383. For the same substance, the “log intensity, ESTs (r567)” value (on MEFS) was 1.124, the “log intensity, ESTs (r627)” value (on MEFS) was 3.973 and the “log intensity, ESTs (r741)” value (on MEFS) was 2.614. The “log intensity, ESTs (r745)” value (on MEFS) was 3.836, the “log intensity, ESTs (r766)” value (on MEFS) was 2.128 and the “log intensity, ESTs (r767)” value (on MEFS) was −0.3504.
